Test [1] relates to established glioblastoma tumour cell clusters in GBM/brain co-cultures. Kind of test: Tumour regression in established GBM/brain co-cultures, treatment started three days after seeding. Format: cell-based. The source says:
Chemotherapies are given to patients with established tumours and are poorly effective.
Thus, also in terms of tumour regression, the properties of the co-cultures of the invention are representative of the clinical situation.

Test [2] deals with A172. Kind of test: 3D co-culture of A172 glioblastoma cells with brain cell matrix, growth inhibition. Format: cell-based. To be noted: Homo sapiens, A172, 3D co-culture with brain cell matrix. As for the experimental part:
(§1) Each of these cell lines was eGFP-labeled and mixed with rat brain cells to form 3D organotypic co-cultures. As indicated by the eGFP signal, all brain-derived tumour cell lines grew and formed clusters of tumour cells within the co-cultures (FIGS. 3B, C and D) in a very similar way as LN18 cells.
(§2) Organotypic co-cultures were prepared as previously described. 2 hours after preparation, TMZ was added into the culture medium at various concentrations—see FIG. 6. The cultures are incubated in the culture medium+TMZ for up to 14 days with the compound being renewed as the media was changed. This allowed for monitoring of the effect of the TMZ over time.
(§3) Similarly to what has been observed with LN-18 cells, efficacy of Temozolomide was increased from 2.5 to 12 fold in brain-co-cultures. Thus, the co-cultures of the invention reflect the clinical situation more closely than 2D cultures for various glioblastoma cell lines.

The subject of test [3] is A172. The test can be described thus: 2D culture of A172 glioblastoma cells, growth inhibition. Format: cell-based. To be noted: Homo sapiens, A172, 2D culture. As for the experimental part:
(§4) For the monolayer cultures of tumour cells alone (2D) LN-18_GFP cells were plated into 24 well plates at a concentration of 10^4 cells per well and after 2 hours treated with the same concentrations of TMZ as the organotypic co-cultures. Control organotypic co-cultures and 2D cultures were also monitored to compare normal growth of the tumour cells with that after addition of the TMZ. For analysis of fluorescence, images were taken on a Leica DM1L microscope using Leica application suite software. The images collected were analyzed using the BD IPLAB imaging software and the data analysed using Graphpad Prism5 software. The error bars are the standard error of the mean (SEM). 24 images were used for each data point.
as §3

Test [4] concerns GL-15. The test can be described thus: 3D co-culture of GL-15 glioblastoma cells with brain cell matrix, growth inhibition. Format: cell-based. The following applies: GL-15, 3D co-culture with brain cell matrix. As for the experimental part:
as §1, §2, §3

Test [5] has as its system GL-15. The test can be described thus: 2D culture of GL-15 glioblastoma cells, growth inhibition. Format: cell-based. The following applies: GL-15, 2D culture. As for the experimental part: as §4, §3
The subject of test [6] is LN-18 cells. The test can be described thus: 3D organotypic co-culture of LN-18-GFP tumour cells in rat brain cell matrix, treated at seeding. Format: cell-based, human. As for the experimental part: (§5) Human glioblastoma tumour cell lines, LN-18 (ATCC #CRL2610) were cultured and were transfected with either green fluorescent protein (GFP) expressing plasmids or red fluorescent protein (RFP) expressing plasmids. Cells were cultured and plated onto 6 well plates, at 1×10^5 cells per well, grown overnight and checked to see ˜75% confluence. The cells were transfected with pEGFP-N3 (BD Biosciences cat no #6080-1) using Gene Juice (Novagen cat no #70967-EA) as per manufacturer's protocols. 24 hours after transfection, the cells were selected with Geneticin (GIBCO cat no #10131-019), a population of selected cells were used in the experiments. A population of selected cells were cultured over prolonged periods of time with occasional selection to maintain a population of transfected cells. The expression of fluorescent proteins by the tumour cells allows monitoring of the tumour cells for proliferation and morphological changes. The transfected tumour cells (LN-18) were treated with trypsin/EDTA (sigma#T4299) to remove them from the flask, resuspended in culture media, The viable cells were counted using trypan blue exclusion The suspension was centrifuged at 1000 rpm/3 minutes and the resultant cell pellet resuspended to 50,000 cells/μl.
The organotypic cultures were produced by preparing dissociated cells from isolated rat cortex. P0 Wistar rats were sacrificed and the brains removed. The cortices were dissected into a Petri dish and chopped into small pieces and put into cold EBSS (GIBCO cat no #24010). The tissue pieces were then triturated very gently. The resultant cell suspension was filtered through a 100 μm mesh filter fitting into a 50 ml falcon tube. The suspension was centrifuged at 1000 rpm/3 minutes. The viable cells were counted using Trypan blue exclusion and the cell pellet resuspended to 50,000 cells/μl.
The transfected tumour cells and the rat primary cells prepared as explained in Examples 1 and 2 were mixed together to form a suspension of cells at 50,000 cells/μl.
5 μL of this mixed cell suspension was added to the top of a 0.4 micron Millipore culture insert (Millipore cat no # PICM0350) placed in lml cortical media (10% Hams F12, 20% FCS, 5% horse serum, 10 mM Hepes, 2 mM glutamine in DMEM) in a 6 well plate (NUNC). The plate was then incubated at 37° C. with 5% CO2 (FIG. 1A). During the first hours of this incubation the cells compact to form a denser culture by the removal of the liquid from the 5 μl cell suspension through capillary action via the semi-permeable membrane support (FIG. 1A).
Using these optimisation experiments the cells were mixed in the proportions of 95% rat brain cells and 5% LN-18 tumour cells both resuspended at 50,000 cells per μl.
as §2, §4

Test [7] has as its system LN-18 cells. The test can be described thus: 2D monolayer culture of LN-18-GFP tumour cells alone, fluorescence growth readout. Format: cell-based, human. To be noted: for IC50: Homo sapiens, LN-18, 2D culture, growth inhibition. As for the experimental part:
as §5, §4

For test [8], the system named is U87. Kind of test: 3D co-culture of U87 glioblastoma cells with brain cell matrix, growth inhibition. Format: cell-based. To be noted: Homo sapiens, U-87 MG, U87, 3D co-culture with brain cell matrix. The procedure:
as §1, §2, §3

Test [9] relates to U87. Kind of test: 2D culture of U87 glioblastoma cells, growth inhibition. Format: cell-based. To be noted: Homo sapiens, U-87 MG; U87, 2D culture; read-out: IC50 TMZ 2D.
A further test has as its system LN18-eGFP clusters. The test can be described thus: 5-ALA staining of GBM(LN18-eGFP)/brain co-cultures. To be noted: 100 μg/ml, 24 hours. Format: cell-based, human. An excerpt:
5-aminolevulinic acid (5-ALA) can be used to visualize tumourous tissue during neurosurgical procedures. The intraoperative use of this guiding method may reduce the tumour residual volume and prolong progression-free survival in patients suffering from brain tumours. GBM(LN18-eGFP)/brain co-cultures as prepared in Example 4 were stained with 5-ALA to see whether, as in human tumours, 5-ALA could specifically stain the tumour cells.
Aminolevulinic acid hydrochloride (ALA) (Sigma product number A3785) was solubilised in water to 10 mg/ml. For incubation with the cultures, it was diluted in the medium in the well to give a final concentration of 100 μg/ml and incubated with the cultures for 24 hours. The cultures were then examined microscopically using the CARV confocal system described for immunohistological analysis.

SMILES strings stand for the structures. Bounds are passed on as bounds.

We go through four molecules from patent US20140154735A1, “TUMOUR CELL AND TISSUE CULTURE” (CAPSANT NEUROTECHNOLOGIES LTD., priority 2011, published 2014).

Take `CC(=O)O[C@H]1C(=O)[C@@]2(C)[C@H]([C@H](OC(=O)c3ccccc3)[C@]3(O)C[C@H](OC(=O)[C@H](O)[C@@H](NC(=O)c4ccccc4)c4ccccc4)C(C)=C1C3(C)C)[C@]1(OC(C)=O)CO[C@@H]1C[C@@H]2O` [Taxol, Paclitaxel]: the “effect on fluorescence intensity of established tumour cell clusters” value in test [1] (taxol 25 nM) is listed as “no effect”; in [1] (taxol 100 nM and 50 nM), “marginal effects”. Further, the IC50 (usually the midpoint of a concentration-inhibition curve) in the test on A172 [2] (A 172, read-out: IC50 Taxol 3D) was around 50 nM; in the test with A172 [3] (A 172, read-out: IC50 Taxol 2D), around 7 nM; in the test with GL-15 [4] (read-out: IC50 Taxol 3D), 100 nM; in the test on GL-15 [5] (read-out: IC50 Taxol 2D), around 4 nM; in the test on LN-18 cells [6] (Homo sapiens, LN-18, read-out: IC50 Taxol 3D, LN-18, 3D co-culture with rat brain cells, growth inhibition), around 25 nM; with LN-18 cells [7] (read-out: IC50 Taxol 2D), around 7 nM. In addition, in the test on U87 [8] (read-out: IC50 Taxol 3D), the IC50 is around 60 nM. Also, the “effect on tumour cell growth” value in the test on LN-18 cells [6] (3D, taxol 25 nM, treatment started at seeding) is reported as “cell growth was stopped”. Moreover, the “effect on cell growth versus control cultures (average % fluorescence)” value with LN-18 cells [6] (3D, taxol 25, 50 and 100 nM) was “significant reduction in cell growth”. The “concentration required to achieve tumour clusters shrinkage” value in the test with LN-18 cells [6] (3D, treatment started at seeding) worked out at 100 nM. In addition, in the test on LN-18 cells [7] (2D, Taxol 20 nM), the “effect on tumour cell number” value is on record as “reduction in cell number to almost zero”. In addition, the “effect on tumour cell number (average % fluorescence)” value with LN-18 cells [7] (2D, taxol 5 nM) is listed as “small but significant reduction in cell number”; in the test on LN-18 cells [7] (2D, taxol 20 and 50 nM), “no increase in cell number”.
Consider `Cn1nnc2c(C(N)=O)ncn2c1=O` [TMZ, Temozolomide], for which the IC50 was around 5000 nM in the test with A172 [2] (A 172, read-out: IC50 TMZ 3D); around 25000 nM in the test with A172 [3] (A 172, read-out: IC50 TMZ 2D); around 12000 nM with U87 [9]; around 20000 nM in the test with GL-15 [4] (read-out: IC50 TMZ 3D); above 50000 nM with GL-15 [5] (read-out: IC50 TMZ 2D); below 5000 nM in the test on LN-18 cells [6] (Homo sapiens, LN-18, LN-18, 3D co-culture with rat brain cells, growth inhibition, read-out: IC50 TMZ 3D). The IC50 with LN-18 cells [6] (LN-18, 3D co-culture with rat brain cells, growth inhibition, read-out: IC50 TMZ 3D) is around 4000 nM; with LN-18 cells [7] (read-out: IC50 TMZ 2D), above 10000 nM; in the test on U87 [8] (read-out: IC50 TMZ 3D), around 1000 nM.
As to `Nc1ccn([C@@H]2O[C@H](CO)[C@@H](O)[C@@H]2O)c(=O)n1` [Ara-C, Cytosine arabinoside], the “dose needed in 3D co-cultures relative to dose necessary in 2D cultures” value with LN-18 cells [6] (3D versus 2D) is on record as “ten times”. Further, in the test with LN-18 cells [6] (GBM/Brain co-cultures (3D)), the “concentration required to reduce tumour cell proliferation” value is 1 µM. In the test with LN-18 cells [6] (GBM/Brain co-cultures (3D), 10 μM), the “effect on GBM cells” value is “effectively killed”. Further, in the test on LN-18 cells [7] (2D cultures), the “concentration showing growth inhibition (anti-proliferative activity)” value is 100 nM.
As for `NCC(=O)CCC(=O)O` [5-ALA, 5-aminolevulinic acid], the “staining of tumour cell clusters” value with LN18-eGFP clusters (clusters of more than about 100 μm in diameter) was “strong specific 5-ALA staining”; with LN18-eGFP clusters (clusters smaller than about 100 μm in diameter), “stained more weakly”.
